{
  "source": "patent US6894074B2",
  "about": "“Synergistic insecticidal mixtures” (Bayer Aktiengesellschaft, priority 1999, dated 2005)",
  "assay_type_in_all_cases": "in vivo",
  "key": {"Aphis gossypii": {"tested_on": "Aphis gossypii", "assay": "Field spray test against Aphis gossypii on courgettes, efficacy by the method of Abbott", "conditions": "4 spray applications", "experimental": "The spray liquor (1000 l of water/ha) comprising the active compound(s) was applied using a knapsack sprayer operated with compressed air. 4 spray applications were carried out at intervals of 9-13 days. The plot size was 12 m^2. The effect on the aphids was determined 7, 16 and 29 days after the last application (start of the infestation after the 2nd treatment) by counting the animals which were still alive/leaf (10 leaves/plot) and calculating the efficacy by the method of Abbott."}, "white fly Bemisia tabaci": {"tested_on": "white fly Bemisia tabaci", "assay": "Bemisia test: infested cotton plants dipped into preparation of active compound, kill in %", "conditions": "4 ppm active compound", "text": "The expected activity for a given combinatin of two active compounds can be calculated as follows (according to S. R. Colby, Weeds 15 (1967), 20-22):\nIf the actual activity exceeds the calculated value, then the activity of the combination is superadditive, i.e. a synergistic effect exists. In this case, the efficacy which was actually observed must be greater than the value for the expected efficacy (E) calculated from the abovementioned formula.\nTo produce a suitable preparation of active compound, 1 part by weight of active compound is mixed with the stated amounts of solvent and emulsifier, and the concentrate is diluted with water to the desired concentrations.\nCotton plants (Gossypium hirsutum) which are infested by eggs, larvae and puparia of the white fly Bemisia tabaci are dipped into a preparation of active compound of the desired concentration.\nAfter the desired period of time, the kill in % is determined. 100% means that all animals have been killed; 0% means that none of the animals have been killed."}, "Bemisia tabaci": {"tested_on": "Bemisia tabaci", "assay": "Field spray test against Bemisia tabaci on cotton, efficacy by the method of Abbott", "conditions": "larvae on cotton", "experimental": "The spray liquor (1000 l of water/ha) comprising the active compound(s) was applied using a knapsack sprayer operated by pressurized air. The plot size was 19 m^2. The effect was evaluated 7, 10 and 14 days after the application by determining the number of larvae still alive on the leaf undersurface (10 leaves/plot) and calculating the efficacy by the method of Abbott."}},
  "data": [
    {"smiles": "O=[N+]([O-])/N=C1\\NCCN1Cc1ccc(Cl)nc1", "note": "[Ex. (IIa)]", "values": [
      {"measurement": "Efficacy % Abbott", "setting": "Aphis gossypii; 0.015 % active compound, 7 days after the last treatment", "value": 100, "unit": "%"},
      {"measurement": "Efficacy % Abbott", "setting": "Aphis gossypii; 0.015 % active compound, 16 days after the last treatment", "value": 89, "unit": "%"},
      {"measurement": "Efficacy % Abbott", "setting": "Aphis gossypii; 0.015 % active compound, 29 days after the last treatment", "value": 33, "unit": "%"},
      {"measurement": "Kill in % after 10 d", "setting": "white fly Bemisia tabaci", "value": 0, "unit": "%"}
    ]},
    {"smiles": "Cc1cc(C)c(C2=C(OC(=O)CC(C)(C)C)C3(CCCC3)OC2=O)c(C)c1", "note": "[Ex. (Ia)]", "values": [
      {"measurement": "Efficacy % Abbott", "setting": "Aphis gossypii; 0.0144 % active compound, 7 days after the last treatment", "value": 0, "unit": "%"},
      {"measurement": "Efficacy % Abbott", "setting": "Aphis gossypii; 0.0144 % active compound, 16 days after the last treatment", "value": 0, "unit": "%"},
      {"measurement": "Efficacy % Abbott", "setting": "Aphis gossypii; 0.0144 % active compound, 29 days after the last treatment", "value": 0, "unit": "%"},
      {"measurement": "Efficacy % Abbott", "setting": "Bemisia tabaci; 0.0096 kg of active compound/ha, 7 days after treatment", "value": 49, "unit": "%"},
      {"measurement": "Efficacy % Abbott", "setting": "Bemisia tabaci; 0.0096 kg of active compound/ha, 10 days after treatment", "value": 87, "unit": "%"},
      {"measurement": "Efficacy % Abbott", "setting": "Bemisia tabaci; 0.0096 kg of active compound/ha, 14 days after treatment", "value": 78, "unit": "%"},
      {"measurement": "Kill in % after 10 d", "setting": "white fly Bemisia tabaci", "value": 0, "unit": "%"}
    ]},
    {"smiles": "N#C/N=C1\\SCCN1Cc1ccc(Cl)nc1", "note": "[IIk]", "values": [
      {"measurement": "Efficacy % Abbott", "setting": "Bemisia tabaci; 0.096 kg of active compound/ha, 7 days after treatment", "value": 86, "unit": "%"},
      {"measurement": "Efficacy % Abbott", "setting": "Bemisia tabaci; 0.096 kg of active compound/ha, 10 days after treatment", "value": 61, "unit": "%"},
      {"measurement": "Efficacy % Abbott", "setting": "Bemisia tabaci; 0.096 kg of active compound/ha, 14 days after treatment", "value": 68, "unit": "%"}
    ]}
  ]
}
